{
  "source": "patent US20240239766A1",
  "about": "“3-AMINO PIPERIDYL SODIUM CHANNEL INHIBITORS” (Genentech, Inc., priority 2021, published 2024)",
  "note": "Where a name gives a salt, the structure may show the parent alone.",
  "data": [
    {"biological_target": "hNav1.7 (Homo sapiens (Human), UniProt Q15858)", "sequence (Q15858 other isoform, or with tags, fused parts or gaps)": "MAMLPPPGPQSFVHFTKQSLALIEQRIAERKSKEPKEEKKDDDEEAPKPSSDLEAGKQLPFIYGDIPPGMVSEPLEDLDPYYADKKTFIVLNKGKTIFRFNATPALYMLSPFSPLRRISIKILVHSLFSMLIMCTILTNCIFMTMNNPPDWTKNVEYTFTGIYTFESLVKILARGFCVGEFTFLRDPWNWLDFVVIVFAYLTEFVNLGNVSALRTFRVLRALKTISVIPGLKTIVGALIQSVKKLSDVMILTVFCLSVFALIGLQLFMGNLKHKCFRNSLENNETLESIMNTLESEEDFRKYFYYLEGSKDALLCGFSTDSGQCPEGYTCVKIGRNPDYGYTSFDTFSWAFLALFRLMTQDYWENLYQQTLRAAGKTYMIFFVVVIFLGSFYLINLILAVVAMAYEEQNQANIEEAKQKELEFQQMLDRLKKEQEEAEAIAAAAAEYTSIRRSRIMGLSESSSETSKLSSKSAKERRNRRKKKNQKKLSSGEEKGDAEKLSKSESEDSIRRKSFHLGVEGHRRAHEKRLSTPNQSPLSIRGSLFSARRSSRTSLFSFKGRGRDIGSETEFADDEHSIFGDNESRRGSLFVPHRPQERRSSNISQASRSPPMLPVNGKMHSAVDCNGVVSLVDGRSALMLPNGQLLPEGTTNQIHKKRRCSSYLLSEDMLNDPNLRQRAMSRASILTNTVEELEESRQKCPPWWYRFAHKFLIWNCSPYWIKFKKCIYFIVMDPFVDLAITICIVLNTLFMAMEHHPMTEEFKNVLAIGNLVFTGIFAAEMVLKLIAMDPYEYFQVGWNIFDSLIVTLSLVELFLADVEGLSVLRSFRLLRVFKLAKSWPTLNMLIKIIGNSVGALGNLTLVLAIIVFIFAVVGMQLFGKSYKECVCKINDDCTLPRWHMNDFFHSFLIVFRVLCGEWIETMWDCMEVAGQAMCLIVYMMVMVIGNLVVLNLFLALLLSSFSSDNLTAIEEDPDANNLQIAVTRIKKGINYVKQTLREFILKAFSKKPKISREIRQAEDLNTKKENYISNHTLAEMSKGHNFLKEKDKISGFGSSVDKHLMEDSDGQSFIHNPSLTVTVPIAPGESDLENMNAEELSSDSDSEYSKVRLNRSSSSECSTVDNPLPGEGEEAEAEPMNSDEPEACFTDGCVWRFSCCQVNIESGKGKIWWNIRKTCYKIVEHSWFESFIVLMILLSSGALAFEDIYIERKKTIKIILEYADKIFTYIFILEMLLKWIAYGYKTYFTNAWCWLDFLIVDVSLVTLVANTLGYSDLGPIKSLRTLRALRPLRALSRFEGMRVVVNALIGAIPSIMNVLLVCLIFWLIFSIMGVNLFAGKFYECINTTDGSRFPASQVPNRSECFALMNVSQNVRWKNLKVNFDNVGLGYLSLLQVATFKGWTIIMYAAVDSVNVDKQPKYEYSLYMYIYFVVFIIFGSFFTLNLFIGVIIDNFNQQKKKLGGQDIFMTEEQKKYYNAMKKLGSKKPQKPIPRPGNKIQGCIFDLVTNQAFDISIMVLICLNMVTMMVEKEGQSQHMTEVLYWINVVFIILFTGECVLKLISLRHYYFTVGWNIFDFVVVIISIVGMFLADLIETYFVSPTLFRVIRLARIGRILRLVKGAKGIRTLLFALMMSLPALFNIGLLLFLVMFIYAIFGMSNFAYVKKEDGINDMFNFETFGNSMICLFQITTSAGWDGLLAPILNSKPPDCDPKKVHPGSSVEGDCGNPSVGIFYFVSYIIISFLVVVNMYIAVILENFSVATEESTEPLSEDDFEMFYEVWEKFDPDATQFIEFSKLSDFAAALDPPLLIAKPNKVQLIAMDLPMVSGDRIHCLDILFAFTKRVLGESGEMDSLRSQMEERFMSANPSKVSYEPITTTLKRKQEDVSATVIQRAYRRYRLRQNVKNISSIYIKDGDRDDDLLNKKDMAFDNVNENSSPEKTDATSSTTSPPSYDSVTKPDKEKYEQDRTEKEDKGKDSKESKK", "assay": "Patch voltage clamp electrophysiology assay (EP), Syncropatch 384PE, CHO cells expressing Nav1.7", "format": "cell-based", "conditions": "holding potential −50 mV; 7.5 min compound incubation; read-out: EP SP hNav1.7 EVO (IC50)", "source_text": "Example 101c: Electrophysiological Assay (EP) (In Vitro Assay)\nPatch voltage clamp electrophysiology allows for the direct measurement and quantification of block of voltage-gated sodium channels (NaV's), and allows the determination of the time- and voltage-dependence of block which has been interpreted as differential binding to the resting, open, and inactivated states of the sodium channel (Hille, B., Journal of General Physiology (1977), 69: 497-515).\nThe following voltage clamp electrophysiology studies are performed on representative compounds using cells heterologously expressing Nav1.7 or Nav1.5 channels. cDNAsfor Nav1.7 (NM_002977) and Nav1.5 (AC137587) are stably expressed in Chinese Hamstr Ovary (CHO) cells and CHL (Chinese Hamster Lung) cells respectively. Sodium currents are measured in the whole-cell configuration using Syncropatch 384PE (Nanlon Technologies, Germany). 1NPC®-384 chips with custom medium resistance and single hole mode are used. Internal solution consists of (in mM): […], 10 CsCl, 20 EGTA, and 10 Hepes (pH adjusted to 7.2); and external solution contains (in mM): 60 NMDG, 80 NaCl, 4 KCl, 1 MgCl2, 2 CaCl2), 2 D-Glucose monohydrate, 10 Hepes (pH adjusted to 7.4 with NaOH).\nAfter system flushing, testing compounds are dissolved in external solution containing 0.1% Pluronic F-127. The chip is moved into the measuring head and the instrument primes the chip with external and internal solutions. 10 μl cells are added to the chip from a cell hotel, and a negative pressure of −50 mBar is applied to form a seal. Following treatment with seal enhancer solution and wash-off with external solution, negative pressure of −250 mbar is applied for 1 second to achieve the whole-cell configuration, followed by three washing steps in external solution. 20 μl of compounds is added to 40 μl in each well (1:3 dilution of compounds), and after mixing, 20 μl is removed so the volume is retained at 40 ul. After approximately 13 minutes recordings, 20 μl/well of 2 uM TTX, or 333 uM Tetracaine (for Nav1.5) is added to achieve full block.\nFor voltage protocol, an holding potential of −50 mV is applied during the whole experiment. A depolarizing step is applied to −10 mV for 10 ms, followed by a hyperpolarization step to −150 mV for 20 ms to allow channel recovery from inactivation. A second depolarizing step is applied from −150 mV to −10 mV for 10 ms, where currents are measured to derive blocking effects of compounds. Inhibition is determined based on 7.5 min of compound incubation.", "units": {"IC50": "nM"}, "values": [
      {"molecule": "CN(C)[C@]1(CCc2cccc(C(F)(F)F)c2)CCCN(c2ccc(S(=O)(=O)Nc3ccncn3)c(F)c2)C1", "note": "(single isomer, unassigned) [Example 1]", "IC50": 6.88},
      {"molecule": "CN(C)[C@@]1(CCc2cccc(C(F)(F)F)c2)CCCN(c2ccc(S(=O)(=O)Nc3ccncn3)c(F)c2)C1", "note": "(single isomer, unassigned) [Example 2, formate]", "IC50": 601},
      {"molecule": "CN[C@@]1(CCc2cccc(C(F)(F)F)c2)CCCN(c2ccc(S(=O)(=O)Nc3ccncn3)c(F)c2)C1", "note": "(single isomer, unassigned) [Example 4]", "IC50": 638},
      {"molecule": "CN(C)[C@@]1(CCc2ccccc2)CCCN(c2ccc(S(=O)(=O)Nc3ccncn3)c(F)c2)C1", "note": "(single isomer, unassigned) [Example 5]", "IC50": 10000},
      {"molecule": "CN(C)[C@]1(CCc2ccccc2)CCCN(c2ccc(S(=O)(=O)Nc3ccncn3)c(F)c2)C1", "note": "(single isomer, unassigned) [Example 6]", "IC50": 48.9},
      {"molecule": "CN(C)[C@@]1(CCc2ccc(C(F)(F)F)cc2)CCCN(c2ccc(S(=O)(=O)Nc3ccncn3)c(F)c2)C1", "note": "(single isomer, unassigned) [Example 7]", "IC50": 12.4},
      {"molecule": "CN(C)[C@]1(CCc2ccc(C(F)(F)F)cc2)CCCN(c2ccc(S(=O)(=O)Nc3ccncn3)c(F)c2)C1", "note": "(single isomer, unassigned) [Example 8]", "IC50": 2070},
      {"molecule": "CN(C)[C@@]1(CCc2cccc(C(F)(F)F)c2)CCCN(c2cc(F)c(S(=O)(=O)Nc3ccncn3)cc2Cl)C1", "note": "(single isomer, unassigned) [Example 11]", "IC50": 742},
      {"molecule": "CN(C)[C@]1(CCc2cccc(C(F)(F)F)c2)CCCN(c2cc(F)c(S(=O)(=O)Nc3ccncn3)cc2Cl)C1", "note": "(single isomer, unassigned) [Example 12]", "IC50": 51.5},
      {"molecule": "CN(C)[C@@]1(CCc2cccc(C(F)(F)F)c2)CCCN(c2ccc(S(=O)(=O)Nc3nccs3)c(F)c2)C1", "note": "(single isomer, unassigned) [Example 13]", "IC50": 1.53},
      {"molecule": "CN(C)[C@]1(CCc2cccc(C(F)(F)F)c2)CCCN(c2ccc(S(=O)(=O)Nc3nccs3)c(F)c2)C1", "note": "(single isomer, unassigned) [Example 14]", "IC50": 58.7},
      {"molecule": "CN(C)[C@@]1(CCc2cccc(C(F)(F)F)c2)CCCN(c2cc(F)c(S(=O)(=O)Nc3ccncn3)c(F)c2)C1", "note": "(single isomer, unassigned) [Example 15]", "IC50": 288},
      {"molecule": "CN(C)[C@]1(CCc2cccc(C(F)(F)F)c2)CCCN(c2cc(F)c(S(=O)(=O)Nc3ccncn3)c(F)c2)C1", "note": "(single isomer, unassigned) [Example 16]", "IC50": 1.41},
      {"molecule": "CN(C)[C@@]1(CCc2cccc(C(F)(F)F)c2)CCCN(c2cc(F)c(S(=O)(=O)Nc3ccncn3)c(Cl)c2)C1", "note": "(single isomer, unassigned) [Example 17]", "IC50": 314},
      {"molecule": "CN(C)[C@]1(CCc2cccc(C(F)(F)F)c2)CCCN(c2cc(F)c(S(=O)(=O)Nc3ccncn3)c(Cl)c2)C1", "note": "(single isomer, unassigned) [Example 18]", "IC50": 1.83},
      {"molecule": "CN(C)[C@@]1(CCc2ccc(Cl)c(C(F)(F)F)c2)CCCN(c2ccc(S(=O)(=O)Nc3ccncn3)c(F)c2)C1", "note": "(single isomer, unassigned) [Example 19]", "IC50": 60.4},
      {"molecule": "CN(C)[C@]1(CCc2ccc(Cl)c(C(F)(F)F)c2)CCCN(c2ccc(S(=O)(=O)Nc3ccncn3)c(F)c2)C1", "note": "(single isomer, unassigned) [Example 20, formate]", "IC50": 2.74},
      {"molecule": "O=S(=O)(Nc1ccncn1)c1ccc(N2CCC[C@](CCc3cccc(C(F)(F)F)c3)(N3CCC3)C2)cc1F", "note": "(single isomer, unassigned) [Example 21]", "IC50": 3180},
      {"molecule": "O=S(=O)(Nc1ccncn1)c1ccc(N2CCC[C@@](CCc3cccc(C(F)(F)F)c3)(N3CCC3)C2)cc1F", "note": "(single isomer, unassigned) [Example 22]", "IC50": 84.4},
      {"molecule": "O=S(=O)(Nc1ccncn1)c1ccc(N2CCC[C@](CCc3cccc(C(F)(F)F)c3)(N3CCCC3)C2)cc1F", "note": "(single isomer, unassigned) [Example 23]", "IC50": 8.62},
      {"molecule": "O=S(=O)(Nc1ccncn1)c1ccc(N2CCC[C@@](CCc3cccc(C(F)(F)F)c3)(N3CCCC3)C2)cc1F", "note": "(single isomer, unassigned) [Example 24]", "IC50": 439},
      {"molecule": "O=S(=O)(Nc1ccncn1)c1ccc(N2CCC[C@](CCc3cccc(C(F)(F)F)c3)(N3CCCCC3)C2)cc1F", "note": "(single isomer, unassigned) [Example 25, formate]", "IC50": 312},
      {"molecule": "O=S(=O)(Nc1ccncn1)c1ccc(N2CCC[C@@](CCc3cccc(C(F)(F)F)c3)(N3CCCCC3)C2)cc1F", "note": "(single isomer, unassigned) [Example 26, formate]", "IC50": 19.5},
      {"molecule": "CN(C)CCN(C)[C@@]1(CCc2cccc(C(F)(F)F)c2)CCCN(c2ccc(S(=O)(=O)Nc3ccncn3)c(F)c2)C1", "note": "(single isomer, unassigned) [Example 27, formate]", "IC50": 2150},
      {"molecule": "CN(C)CCN(C)[C@]1(CCc2cccc(C(F)(F)F)c2)CCCN(c2ccc(S(=O)(=O)Nc3ccncn3)c(F)c2)C1", "note": "(single isomer, unassigned) [Example 28, formate]", "IC50": 8.08},
      {"molecule": "CN1CC(CN(C)[C@@]2(CCc3cccc(C(F)(F)F)c3)CCCN(c3ccc(S(=O)(=O)Nc4ccncn4)c(F)c3)C2)C1", "note": "(single isomer, unassigned) [Example 29]", "IC50": 2.66},
      {"molecule": "CN1CC(CN(C)[C@]2(CCc3cccc(C(F)(F)F)c3)CCCN(c3ccc(S(=O)(=O)Nc4ccncn4)c(F)c3)C2)C1", "note": "(single isomer, unassigned) [Example 30, formate]", "IC50": 13.5},
      {"molecule": "CN(C)[C@@]1(CCc2cc(C(F)(F)F)ccc2Cl)CCCN(c2cc(F)c(S(=O)(=O)Nc3ccncn3)c(F)c2)C1", "note": "(single isomer, unassigned) [Example 32]", "IC50": 425},
      {"molecule": "CN(C)[C@]1(CCc2cc(C(F)(F)F)ccc2Cl)CCCN(c2cc(F)c(S(=O)(=O)Nc3ccncn3)c(F)c2)C1", "note": "(single isomer, unassigned) [Example 33, formate]", "IC50": 1.89},
      {"molecule": "CN1CC(N(C)[C@@]2(CCc3cccc(C(F)(F)F)c3)CCCN(c3ccc(S(=O)(=O)Nc4ccncn4)c(F)c3)C2)C1", "note": "(single isomer, unassigned) [Example 34]", "IC50": 1.82},
      {"molecule": "CN1CCC(N(C)[C@@]2(CCc3cccc(C(F)(F)F)c3)CCCN(c3ccc(S(=O)(=O)Nc4ccncn4)c(F)c3)C2)CC1", "note": "(single isomer, unassigned) [Example 36]", "IC50": 2690},
      {"molecule": "CN1CCC(N(C)[C@]2(CCc3cccc(C(F)(F)F)c3)CCCN(c3ccc(S(=O)(=O)Nc4ccncn4)c(F)c3)C2)CC1", "note": "(single isomer, unassigned) [Example 37, formate]", "IC50": 7.22},
      {"molecule": "CN(C)[C@@]1(CCc2cccc(C(F)(F)F)c2)CCCN(c2cc(F)c(S(=O)(=O)Nc3ccncn3)cc2F)C1", "note": "(single isomer, unassigned) [Example 38]", "IC50": 28.8},
      {"molecule": "CN(C)[C@]1(CCc2cccc(C(F)(F)F)c2)CCCN(c2cc(F)c(S(=O)(=O)Nc3ccncn3)cc2F)C1", "note": "(single isomer, unassigned) [Example 39]", "IC50": 9110},
      {"molecule": "CN(C)[C@]1(CCc2cccc(C(F)(F)F)c2Cl)CCCN(c2cc(F)c(S(=O)(=O)Nc3ccncn3)c(F)c2)C1", "note": "(single isomer, unassigned) [Example 41]", "IC50": 1.07},
      {"molecule": "CN(C)[C@@]1(CCc2cc(Cl)cc(C(F)(F)F)c2)CCCN(c2cc(F)c(S(=O)(=O)Nc3ccncn3)c(F)c2)C1", "note": "(single isomer, unassigned) [Example 42]", "IC50": 52},
      {"molecule": "CN1CC[C@@H](N(C)[C@@]2(CCc3cccc(C(F)(F)F)c3)CCCN(c3cc(F)c(S(=O)(=O)Nc4ccncn4)c(F)c3)C2)C1", "note": "(single isomer, unassigned) [Example 44]", "IC50": 195}
    ]}
  ]
}
